Laboratory results reported in PMC6290023 (Scientific Reports, 2018).
Peptide text beside a SMILES is read from it.

Tests used:
LPS-stimulated MG6 cells = assay: LDH assay in LPS-stimulated MG6 cells; assay type: cell-based, mouse
[1] = Pharmacokinetics after intravenous injection 4 h after tMCAo (LC/MS/MS); assay type: in vivo; conditions: mouse, i.v. 2 mg/ml, 10 ml/kg in 0.45% saline
Procedure: MHP1-Ac or MHP1-AcN (2 mg/ml, 10 ml/kg in 0.45% saline) was administered intravenously 4 hrs after tMCAo and mouse plasma was collected at 5 min, 10 min, 20 min, 30 min, 45 min, 1 h, and 2 h after injection. Mouse plasma (C57BL6J, 10 µL) and water/phosphoric acid (24:1, v/v) (Solution B, 500 µL) were mixed together to prepare the plasma samples. The samples (510 µL) were then analyzed using LC/MS/MS to determine MHP1-Ac or MHP1-AcN in plasma. Mouse brain was weighed and mixed with a 4-fold volume of solution B and the mixture was homogenized to prepare the brain samples. The specific gravity of solution B was assumed to be 1. The brain samples (10 µL) were analyzed using LC/MS/MS to determine MHP1-Ac or MHP1-AcN in brain. MHP1-Ac and MHP1-AcN, and MHP1-N (internal standard), in the plasma samples and brain samples, were extracted using Oasis HLB μElution Plate (Waters). Chromatographic analysis was performed on an InertSustain C18 (2.1 mm I.D. ×50 mm, 3 µm, GL Sciences) column using the mobile phase A, water/formic acid (1000:1, v/v), and the mobile phase B, acetonitrile/formic acid (1000:1, v/v).

[2] = Dissolution in water and sedimentation in 0.45% saline at 37 °C for 24 h; assay type: physicochemical; conditions: for sedimentation after incubation in 0.45% saline: 37 °C, 24 h, visual
Procedure: Synthetic MHP1 (NH2-[…]-COOH), MHP1-DN1 (NH2-LMVYVV-DLys-[…]-COOH), MHP1-DN2 (NH2-LMV-DTyr-[…]-COOH), MHP1-DN3 (NH2-L-DMet-[…]-COOH), MHP1-DC (NH2-LMVYVVKTSIKIPSSHNL-DMet-KGGSTKNWSGN-COOH), MHP1-Ac (Ac-[…]-COOH), MHP1-AcN (Ac-[…]-HN2), or MHP1-N (NH2-[…]-NH2) was purchased from ILS, Inc (Ibaraki, Tsukuba, Japan), dissolved in 1 or 2 mg/ml ddH2O and stored at 4 °C until use (Table 1).

[3] = system: mouse osteoclast precursor cells; assay: Osteoclast differentiation of mouse osteoclast precursor cells (TRAP-positive large cells); assay type: cell-based; conditions: M-CSF 50 ng/ml, 5 days
Procedure: Osteoclast differentiation was examined using a mouse osteoclast culture system obtained from Cosmo Bio Co. Ltd. (Tokyo, Japan). Mouse osteoclast precursor cells seeded in a 24-well plate were incubated with macrophage colony stimulating factor (50 ng/ml) and RANKL (50 ng/ml) with or without MHP1-AcN. After five days, osteoclast precursors stimulated with RANKL had fused with each other and became multinucleated TRAP-positive cells. Cells with more than ten nuclei were classified as large osteoclasts. The number of these cells in each group was counted with a phase contrast microscope (BZ-9000, Keyence, Tokyo) using BZII analyzer software (v1.42; Keyence, Tokyo).

[4] = Safety in normal mice (blood biochemistry); assay type: in vivo, mouse; conditions: intravenous injection and continuous subcutaneous injection with Alzet pump, 24 h post-injection
tMCAo model in mice = assay: Transient middle cerebral artery occlusion (tMCAo) model; assay type: in vivo; conditions: mouse tMCAo; for reduction of infarct volume: 150 μl i.v. 6 h after MCAo then s.c. Alzet pump 24 h; for neurological deficits (neurological severity score): start 6 h after MCAo
Procedure: The plan of animal studies was approved by the Animal Committee of Graduate School of Medicine, Osaka University (25-029-012), and all animal experiments were carried out in accordance with the guidelines of Osaka University. All surgeries were performed using isoflurane and all efforts were made to minimize suffering. The C57Bl6/J mice were obtained from CLEA Japan, Inc. The transient middle cerebral artery occlusion procedure was described previously (1). Briefly, the mice were anesthetized with isoflurane (1.4%). The cerebral blood flow (CBF) was measured using a laser Doppler flowmeter (Unique Acquisition software; Unique Medical, Osaka, Japan). A 6.0 monofilament surgical suture was advanced into the internal carotid artery to obstruct the origin of the middle cerebral artery. The filament was left in place for 40 min before withdrawal. For all the mice, the rectal temperature was maintained at 37.0 ± 0.5 °C during surgery and recovery period (until the animals regained consciousness). […] MHP1 (4 mg/ml in water) was diluted to 0.5, 1, or 2 mg/ml in 0.45% saline, and 150 μl of the MHP1 was injected intravenously at 6 or 8 h after the MCAo. MHP1 was subsequently injected subcutaneously for 24 hrs using Alzet mini-osmotic pump (2001D, DURECT Corporation, Cupertino, USA). The vehicle control for MHP1, 0.45% saline, was injected similarly.
(§1) The ischemic damage was evaluated at 48 h after MCAo in sections stained with cresyl violet. Coronal sections (12 μm thickness) were made at −1.4, −0.7, 0, 0.7 and 1.4 mm from the bregma, mounted on the stereomicroscope and photographed. The volume of the infarct was calculated by the sum of each area of all sections corrected by cerebral edema and multiplied by the thickness of the slices. In the experiment of tPA-induced hemorrhage, PE10-catheter was placed in the right internal jugular vein at 6 h after ischemia. The nylon suture was then removed and 10% of the MHP-AcN mixture (150 µg/mice) and tPA (10 mg/kg) were injected followed by continuous injection of residual mixture of MHP1-AcN and tPA using a syringe pump (UNIVENTOR 400 ANAESTHESIA UNIT, ZTN, MALTA). In the experiment of FeCl3 -induced thrombosis model in CCA, a piece of filter paper soaked in 7.5% FeCl3 was placed on the right CCA for 1 min and it was rinsed with saline. Blood flow was recorded by using a laser speckle blood flow imager (OMEGAZONE OZ-2, OMEGAWAVE, INC., Tokyo, Japan). tPA (10 mg/kg) or mixture of MHP1-AcN (150 μg/mice) and tPA was started to be administered at 30 min after CCA occlusion.

tPA-induced hemorrhage = assay type: in vivo; conditions: mouse tMCAo, MHP1-AcN 150 µg/mice combined with tPA 10 mg/kg after reperfusion at 6 h; 24 h after ischemia
Procedure: as §1

level at 0.5 h ([1]; C57BL6J, iv, 20 mg/kg, plasma, 30 min, read-out: intact peptide in plasma 30 min post-injection): ~8000 ng/mL
time post-injection until which peptide was detected in the brain ([1]; brain homogenate, last sampling 2 h): 2 h
sedimentation after incubation in 0.45% saline ([2]; 1 mg/ml): sedimentation was not observed
sedimentation after incubation in 0.45% saline ([2]; 2 mg/ml): sedimentation was not observed
dissolution in water ([2]; water): easily dissolved in water
Compound: CC[C@H](C)[C@H](NC(=O)[C@H](CO)NC(=O)[C@@H](NC(=O)[C@H](CCCCN)NC(=O)[C@@H](NC(=O)[C@@H](NC(=O)[C@H](Cc1ccc(O)cc1)NC(=O)[C@@H](NC(=O)[C@H](CCSC)NC(=O)[C@H](CC(C)C)NC(C)=O)C(C)C)C(C)C)C(C)C)[C@@H](C)O)C(=O)N[C@@H](CCCCN)C(=O)N[C@H](C(=O)N1CCC[C@H]1C(=O)N[C@@H](CO)C(=O)N[C@@H](CO)C(=O)N[C@@H](Cc1c[nH]cn1)C(=O)N[C@@H](CC(N)=O)C(=O)N[C@@H](CC(C)C)C(=O)N[C@@H](CCSC)C(=O)N[C@@H](CCCCN)C(=O)NCC(=O)NCC(=O)N[C@@H](CO)C(=O)N[C@H](C(=O)N[C@@H](CCCCN)C(=O)N[C@@H](CC(N)=O)C(=O)N[C@@H](Cc1c[nH]c2ccccc12)C(=O)N[C@@H](CO)C(=O)NCC(=O)N[C@@H](CC(N)=O)C(N)=O)[C@@H](C)O)[C@@H](C)CC [MHP1-AcN] (Ac-LMVYVVKTSIKIPSSHNLMKGGSTKNWSGN-NH2)
cytotoxicity (LDH assay) (LPS-stimulated MG6 cells): did not increase cytotoxicity
effect on RANKL-induced osteoclast differentiation ([3]; RANKL 50 ng/ml): inhibited RANKL-induced osteoclast differentiation
effect on osteoclast differentiation (peptide alone) ([3]; without RANKL): did not affect the osteoclast differentiation
blood biochemistry [4]: no abnormalities
reduction of infarct volume (tMCAo model in mice; 0.5 mg/ml, infarct at 48 h): effective
neurological deficits (neurological severity score) (tMCAo model in mice; 0.5 mg/ml): significantly improved
reduction of infarct volume (tMCAo model in mice; 1 mg/ml, infarct at 48 h): the most effective dose
neurological deficits (neurological severity score) (tMCAo model in mice; 1 mg/ml): significantly improved
neurological deficit (tMCAo model in mice; 1 mg/ml, start 8 h after ischemia, at 48 h after ischemia): significantly improved
infarct volume compared to saline-treated mice (tMCAo model in mice; 1 mg/ml, start 8 h after ischemia, infarct at 48 h): tendency of reduction
reduction of infarct volume (tMCAo model in mice; 2 mg/ml, infarct at 48 h): effective
neurological deficits (neurological severity score) (tMCAo model in mice; 2 mg/ml): tendency of recovery
effect on tPA-induced hemorrhagic formation (tPA-induced hemorrhage): reduced formation of hemorrhage
